From ChEMBL document CHEMBL5370659 (J Med Chem, 2023)
The source made the active and inactive calls. The rule behind the calls is not given here.

Assays:
[1] = Inhibition of BCRP in human Caco-2 cells seeded in polyethylene membranes assessed as permeation in presence or absence of E3S measured for 2 hrs by LC-MS/MS analysis based transporter assay; format: cell-based
[2] = Brain homogenate binding in rat; format: ADME, tissue-based
[3] = molecular target: T1, Tryptophan 5-hydroxylase 1 (Homo sapiens, UniProt P17752); assay: Binding affinity to […] (unknown origin) assessed as equilibrium dissociation constant by surface plasmon resonance analysis
T1 sequence (P17752 whole entry): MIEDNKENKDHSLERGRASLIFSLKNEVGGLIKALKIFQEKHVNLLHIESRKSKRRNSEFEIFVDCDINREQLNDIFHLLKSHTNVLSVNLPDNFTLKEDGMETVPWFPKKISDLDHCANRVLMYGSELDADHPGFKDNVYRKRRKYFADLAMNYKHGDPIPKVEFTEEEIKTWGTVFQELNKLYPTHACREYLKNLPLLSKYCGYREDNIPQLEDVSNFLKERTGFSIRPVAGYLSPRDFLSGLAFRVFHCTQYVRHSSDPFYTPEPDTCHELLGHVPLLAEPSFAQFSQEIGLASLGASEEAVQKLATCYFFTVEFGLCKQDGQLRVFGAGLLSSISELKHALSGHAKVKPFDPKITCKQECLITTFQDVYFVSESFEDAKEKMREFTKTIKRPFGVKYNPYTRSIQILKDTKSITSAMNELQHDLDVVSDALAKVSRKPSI

[4] = Mutagenicity in Salmonella typhimurium TA100 in presence or absence of rat liver S9 fraction by Ames test; format: toxicity; details: salmonella enterica subsp. enterica serovar typhimurium
Cytochrome P450 2C19 = Cytochrome P450 2C19 (Homo sapiens, UniProt P33261); assay: Inhibition of CYP2C19 in human liver microsome using S-mephenytoin as substrate measured upto 50 uM incubated for 10 mins followed by NADPH addition incubated for 10 mins by LC/MS/MS analysis; format: ADME; details: microsomes, 20 min
Sequence of Cytochrome P450 2C19 (P33261 whole entry): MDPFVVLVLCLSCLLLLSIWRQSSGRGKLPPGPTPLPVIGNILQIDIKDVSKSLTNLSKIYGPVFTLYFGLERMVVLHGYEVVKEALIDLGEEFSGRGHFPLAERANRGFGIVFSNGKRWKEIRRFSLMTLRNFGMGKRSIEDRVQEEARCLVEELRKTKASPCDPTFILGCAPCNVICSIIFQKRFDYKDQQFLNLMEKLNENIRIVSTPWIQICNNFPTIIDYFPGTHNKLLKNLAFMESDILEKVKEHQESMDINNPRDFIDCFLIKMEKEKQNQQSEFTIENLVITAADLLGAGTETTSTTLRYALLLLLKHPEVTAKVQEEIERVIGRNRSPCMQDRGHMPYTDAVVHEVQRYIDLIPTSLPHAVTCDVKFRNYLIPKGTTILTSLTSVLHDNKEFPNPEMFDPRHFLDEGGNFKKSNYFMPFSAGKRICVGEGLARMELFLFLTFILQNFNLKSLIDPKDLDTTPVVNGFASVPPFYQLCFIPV

Cytochrome P450 3A4 = Cytochrome P450 3A4 (Homo sapiens, UniProt P08684); assay: Inhibition of CYP3A4 in human liver microsome using midazolam as substrate measured upto 50 uM incubated for 10 mins followed by NADPH addition incubated for 10 mins by LC/MS/MS analysis; format: ADME; details: microsomes, 20 min
Sequence of Cytochrome P450 3A4 (P08684 whole entry): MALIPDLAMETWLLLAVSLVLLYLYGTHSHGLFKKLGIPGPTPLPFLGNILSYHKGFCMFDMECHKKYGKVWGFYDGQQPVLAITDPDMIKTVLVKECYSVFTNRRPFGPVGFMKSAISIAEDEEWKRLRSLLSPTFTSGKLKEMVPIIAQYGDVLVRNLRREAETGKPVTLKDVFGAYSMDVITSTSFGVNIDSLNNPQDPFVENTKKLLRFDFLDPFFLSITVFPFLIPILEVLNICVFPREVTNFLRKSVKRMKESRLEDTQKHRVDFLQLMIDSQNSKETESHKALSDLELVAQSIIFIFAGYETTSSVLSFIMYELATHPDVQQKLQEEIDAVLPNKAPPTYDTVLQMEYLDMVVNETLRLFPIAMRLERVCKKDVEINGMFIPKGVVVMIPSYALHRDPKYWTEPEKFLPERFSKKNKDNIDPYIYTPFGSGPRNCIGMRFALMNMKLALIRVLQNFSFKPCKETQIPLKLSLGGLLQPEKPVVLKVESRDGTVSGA

[5] = molecular target: Voltage-gated inwardly rectifying potassium channel KCNH2 (Homo sapiens, UniProt Q12809); assay: Inhibition of hERG channel expressed in CHO cells by whole-cell patch clamp assay; format: toxicity, cell-based
Sequence of Voltage-gated inwardly rectifying potassium channel KCNH2 (Q12809 whole entry): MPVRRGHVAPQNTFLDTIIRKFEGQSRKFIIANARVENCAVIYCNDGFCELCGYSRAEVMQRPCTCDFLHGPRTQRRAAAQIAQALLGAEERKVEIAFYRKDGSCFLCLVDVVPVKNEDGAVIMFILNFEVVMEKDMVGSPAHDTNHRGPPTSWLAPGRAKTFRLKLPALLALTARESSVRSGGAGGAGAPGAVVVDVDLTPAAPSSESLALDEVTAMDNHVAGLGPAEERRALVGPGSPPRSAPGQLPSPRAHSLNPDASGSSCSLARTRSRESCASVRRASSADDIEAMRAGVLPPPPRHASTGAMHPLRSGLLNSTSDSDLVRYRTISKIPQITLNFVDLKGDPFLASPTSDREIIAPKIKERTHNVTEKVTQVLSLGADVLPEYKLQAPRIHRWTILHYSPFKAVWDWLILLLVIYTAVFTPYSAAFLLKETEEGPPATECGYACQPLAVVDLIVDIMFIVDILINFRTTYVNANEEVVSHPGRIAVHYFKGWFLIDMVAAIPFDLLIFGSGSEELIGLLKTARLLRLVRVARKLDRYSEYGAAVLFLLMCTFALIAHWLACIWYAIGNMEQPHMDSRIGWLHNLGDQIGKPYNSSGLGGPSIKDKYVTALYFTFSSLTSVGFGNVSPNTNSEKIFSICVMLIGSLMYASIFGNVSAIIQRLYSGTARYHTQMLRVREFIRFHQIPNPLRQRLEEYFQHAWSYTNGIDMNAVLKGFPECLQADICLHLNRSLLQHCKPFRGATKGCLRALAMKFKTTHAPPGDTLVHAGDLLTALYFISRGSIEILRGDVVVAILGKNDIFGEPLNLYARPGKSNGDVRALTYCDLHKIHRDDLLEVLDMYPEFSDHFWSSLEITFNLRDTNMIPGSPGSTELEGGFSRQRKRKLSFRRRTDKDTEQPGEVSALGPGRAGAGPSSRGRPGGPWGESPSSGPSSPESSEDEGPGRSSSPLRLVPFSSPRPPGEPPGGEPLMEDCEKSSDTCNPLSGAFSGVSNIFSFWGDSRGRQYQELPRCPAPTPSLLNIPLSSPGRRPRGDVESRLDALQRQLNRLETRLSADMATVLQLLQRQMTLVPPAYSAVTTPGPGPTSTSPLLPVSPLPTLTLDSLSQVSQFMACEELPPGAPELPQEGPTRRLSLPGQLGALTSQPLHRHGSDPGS

[6] = Cmax in CD-1 (ICR) mouse at 50 mg/kg, po measured upto 1440 mins by LC-MS/MS analysis; format: ADME, organism-based; design: dose 50 mg/kg, time < 1440 min, route po; details: in vivo
[7] = MRT (0 to last) in CD-1 (ICR) mouse at 50 mg/kg, po measured upto 1440 mins by LC-MS/MS analysis; format: ADME, organism-based; details: in vivo
[8] = Oral bioavailability in CD-1 (ICR) mouse at 50 mg/kg measured upto 1440 mins by LC-MS/MS analysis; format: ADME, organism-based; details: in vivo
[9] = MRT (0 to infinitive) in Sprague-Dawley rat at 10 mg/kg, iv measured upto 1440 mins by LC-MS/MS analysis; format: ADME, organism-based; details: in vivo
[10] = Half life in Sprague-Dawley rat at 20 mg/kg, po measured upto 1440 mins by LC-MS/MS analysis; format: ADME, organism-based; details: in vivo
[11] = AUC (0 to infinitive) in Sprague-Dawley rat at 20 mg/kg, po measured upto 1440 mins by LC-MS/MS analysis; format: ADME, organism-based; design: dose 20 mg/kg, time < 1440 min, route po; details: in vivo
[12] = MRT (0 to last) in Sprague-Dawley rat at 20 mg/kg, po measured upto 1440 mins by LC-MS/MS analysis; format: ADME, organism-based; details: in vivo
[13] = Cmax in Sprague-Dawley rat at 50 mg/kg, po measured upto 1440 mins by LC-MS/MS analysis; format: ADME, organism-based; design: time < 1440 min, dose 50 mg/kg, route po; details: in vivo
[14] = Plasma concentration in Sprague-Dawley rat at 50 mg/kg, po measured at 0.5 hrs by LC-MS/MS analysis; format: ADME, organism-based
[15] = Plasma concentration in Sprague-Dawley rat at 20 mg/kg, po measured at 2 hrs by LC-MS/MS analysis; format: ADME, organism-based
[16] = Toxicity in C57BL/6N mouse assessed as body weight change at 1.5 to 15 mg/kg, po bid treated for 7 days; format: organism-based; details: in vivo, 168 h, dose 1.5-15 mg/kg, time 7 day
[17] = Toxicity in C57BL/6N mouse assessed as general toxic effects at 1.5 to 15 mg/kg, po bid treated for 7 days; format: organism-based; details: in vivo, 168 h, dose 1.5-15 mg/kg, time 7 day
Mus musculus = assay: Effect on total travelled distance of C57BL/6N mouse at 20 mg/kg, po treated for 14 days by locomotor activity test; format: functional, organism-based; details: time 14.0 day
[18] = Tlast in Sprague-Dawley rat at 50 mg/kg, po measured upto 1440 mins by LC-MS/MS analysis; format: ADME, organism-based; details: in vivo, 24 h

Activity [2]: 70%
Kd [3]: 0.0032 µM
inhibition (INH) (Cytochrome P450 2C19): Not Active
inhibition (INH) (Cytochrome P450 3A4): Not Active
Cmax [6]: 6950 ng/mL
MRT last at 24 h [7]: 1.58 h
bioavailability [8]: 41.3%
MRT inf [9]: 0.7 h
half-life [10]: 4.48 h
AUC(0-inf) [11]: 3320 ng·h/mL
MRT last at 24 h [12]: 2.91 h
Cmax [13]: 4100 ng/mL
concentration at 0.5 h [14]: 5950 ng/mL
concentration at 2 h [15]: 196 ng/mL
Tlast [18]: 24 h
Structure (SMILES): CCn1c(=O)[nH]c(=O)c2c1nc(Cc1cn3cc(C)sc3n1)n2CC1COC1
IC50 [1]: > 100 µM
Activity [4]: Non-Toxic
IC50 [5]: > 30 µM
Activity [16]: Non-Toxic
Activity [17]: Non-Toxic
Activity (Mus musculus): inactive
